Where “and” joins values, the source holds several entries; their conditions need not be identical. Equal entries are not always repeated. Where two headings read alike, the source gives them in different places.
Experiments:
[1] = Abiotic loss in negative controls of the hepatocyte clearance assay (cell-free media, metabolically inactivated hepatocytes); format: in vitro ADME; details: flag for stability failure in hepatocyte clearance assay controls (1 or Fst = fail, 0 = pass)
Method: (§1) The hepatic metabolic stability assay measures the loss of a parent compound over time in a substrate-depletion approach. Briefly, hepatocyte suspensions, after a viability assessment, were diluted in complete William’s medium E (containing dexamethasone and cell maintenance cocktail B) prior to addition to 96-well polypropylene plates containing an equal volume of media spiked with the test compound (1 μM assay concentration; assay cell density = 50,000 cells/100 μL) and maintained at 37 °C with shaking. At each time point, relevant plates were crashed with an equal volume of ice-cold acetonitrile, centrifuged, and supernatant transferred to a new plate prior to storage at <−70 °C until quantitative analysis. Controls, run in parallel, included cell-free (i.e., media only) and metabolically inactivated hepatocytes to evaluate abiotic chemical stability in the aqueous media matrix with and without cellular protein. In preliminary runs, these controls were run at T0 and T240 only. If significant instability was noted, the hepatocyte clearance assay was rerun, including cell-free samples at each time point and metabolically inactivated hepatocytes at selected time points.
Negative controls, including media only and metabolically inactivated hepatocyte controls, were included to monitor abiotic loss (i.e., background clearance) during the assay. Where significant compound loss occurred using the analysis described above, background clearance rates were calculated and used to background-adjust hepatic metabolic clearance rates. Where chemicals were cleared prior to the end of the analysis, at 240 min (T240), the corresponding negative control timepoint was used for background subtraction. Any chemicals displaying a 50% or more abiotic loss at T120 were deemed unstable and were excluded from further analyses.

human plasma [2] = test: Chemical stability in plasma over the UC assay time course (T5hr/T1hr); details: for % remaining_PPB: chemical remaining in plasma over the PPB assay time course, NS = no significant loss; for PPB_Stab_Fail: flag for stability failure in the plasma protein binding assay (1 = fail, 0 = pass); for Fstable.Med: median fraction stable in plasma, UC assay Level4; for Stability (T5hr/ T1hr), replicates A, B, C: single replicate of one UC run; for Time 1 hr / Time 1 hr, Run-specific Avg: amount measured in plasma sample at 1 hr; for Time 1 hr / Time 5 hr: replicates A, B, C; for Time 1 hr / Time 1 hr, Run-specific Avg / Time 5 hr / Time 5 hr, Run-specific Avg: unit not given; for Time 1 hr, Run-specific Avg / Time 5 hr, Run-specific Avg: run average; for Time 5 hr / Time 5 hr, Run-specific Avg: amount measured in plasma sample at 5 hr
human plasma [3] = test: Ultracentrifugation (UC) plasma protein binding assay, fraction unbound in plasma (fup); details: for Fup.Med: median fraction unbound in plasma; for Fup.Med / Fup.point: UC assay Level4; for Fup.point: point estimate of fraction unbound in plasma; for Fraction Unbound (fu), replicates A, B, C: single replicate of one UC run (aqueous fraction / Time 5 hr); for Aqueous Fraction / Aqueous Fraction, Run-specific Avg: amount measured in aqueous fraction after ultracentrifugation, unit not given; for Aqueous Fraction: replicates A, B, C; for Aqueous Fraction, Run-specific Avg: run average
in vitro = details: both, human, plasma
human plasma [4] = details: human, plasma
[5] = Hepatic metabolic stability (hepatocyte clearance) assay, substrate depletion; format: in vitro ADME, human; details: both sexes, human, s9, Clint.1.Med
From the text: William’s Medium E (Gibco A1217601), dexamethasone, and cell maintenance cocktail B (Gibco CM4000) were obtained from Thermo Fisher Scientific (Waltham, MA, USA). Hepatosure OptiThaw media (P/N K8000; Lot No. 18–1–0322) was obtained from Sekisui Xenotech (Kansas City, KS, USA). Trypan blue solution (P/N 1450021) was obtained from Bio-Rad (Hercules, CA, USA). Pooled human cryopreserved primary hepatocyte suspensions were obtained from BioIVT (Westbury, NY, USA) and produced using nontransplantable tissue. The human 50-donor pool (mixed gender; Cat X0080005; Lot MYC), selected from BioIVT’s commercially available, prepooled lots, was selected following review of vendor-generated metabolic characterization information. Pooled, mixed-sex human plasma from de-identified donors was obtained from a commercial vendor that operates a U.S. Food and Drug Administration-licensed and inspected donor center (BioIVT bioivt.com (accessed 12 May 2023). Donors comprised five males and five females and ranged from 20 to 50 years of age. Plasma collected using anticoagulant K2EDTA was sterile-filtered ([…]) and stored at <−70 °C until use.
as §1
To process samples for quantitative analysis, samples were thawed and mixed. An aliquot of sample was removed and diluted in acetonitrile (1 part sample plus 9 parts acetonitrile) containing the relevant ISs selected for the PFAS being analyzed (See Table S2). The target at instrument concentration of each IS was 10 pg/μL.
The curves were generated using concentration/response ratios from the target analyte and IS, with either linear or quadratic regression models. The model and weighting, if necessary, were chosen to most accurately reflect the response of each compound and was evaluated by recalculating the individual calibration points using the curve. An acceptable model reflected an accuracy of ±30% of the theoretical value.
Hepatic metabolic clearance data were plotted in semi-log format (ln concentration vs. time) with three replicates at each time point, as previously described. […] The equations described below are used to calculate the chemical half-life (T½) and intrinsic in vitro clearance (Clin vitro) with units of μL/(min × million hepatocytes). In Equation (3), 2000 is a scalar used to adjust the assay cell number up to be consistent with units of 1 million cells in the Clint equation.
Negative controls, including media only and metabolically inactivated hepatocyte controls, were included to monitor abiotic loss (i.e., background clearance) during the assay. Where significant compound loss occurred using the analysis described above, background clearance rates were calculated and used to background-adjust hepatic metabolic clearance rates. […]

[6] = average of one UC run (run date in line above)
[7] = mean T5hr/T1hr ratio over all replicates and runs, plasma
[8] = Fraction Unbound (fu), Run-specific Avg, average of one UC run (run date in line above)
[9] = Fraction Unbound (fu), replicates A, B, C, single replicate of one UC run (aqueous fraction / Time 5 hr)
[10] = Mean Fu, mean fraction unbound over all replicates and runs, UC assay, human plasma
[11] = Mean fu, fraction unbound in human plasma, ultracentrifugation, some values based on eLOQ
[12] = mean T5hr/T1hr ratio in plasma over all replicates/runs
[13] = Fraction Unbound (fu), Run-specific Avg, average of one UC run
[14] = Fraction Unbound (fu), individual replicates A, B, C of the UC run named in c8
[15] = Mean Fu, mean fraction unbound in human plasma over all UC replicates/runs

| SMILES | Hep_Stab_Fail [1] | Stability (T5hr/ T1hr), Run-specific Avg (human plasma [2]; [6]) | % remaining_PPB (human plasma [2]) | PPB_Stab_Fail (human plasma [2]) | Mean Stability (human plasma [2]; [7]) | Fstable.Med (human plasma [2]) | Stability (T5hr/ T1hr), replicates A, B, C (human plasma [2]) | Fup.Med (human plasma [3]) | Fup.point (human plasma [3]) | Fraction Unbound (fu), replicates A, B, C (human plasma [3]) | fraction unbound (in vitro; [11]) | Time 1 hr (human plasma [2]) | Time 1 hr, Run-specific Avg (human plasma [2]) | Time 5 hr (human plasma [2]) | Time 5 hr, Run-specific Avg (human plasma [2]) | Stability (T5hr/ T1hr), Run-specific Avg (human plasma [2]; average of one UC run) | Mean Stability (human plasma [2]; [12]) | Aqueous Fraction (human plasma [3]) | Aqueous Fraction, Run-specific Avg (human plasma [3]) | fraction unbound (in vitro; [13]) | also measured |
| --- | --- | --- | --- | --- | --- | --- | --- | --- | --- | --- | --- | --- | --- | --- | --- | --- | --- | --- | --- | --- | --- |
| O=C(CC(=O)C(F)(F)C(F)(F)C(F)(F)F)c1cccs1 [(Perfluorobutyryl)-2-thenoylmethane] | Fst | 1.277 | 100% | 0 | 1.278 | 0.959 | 1.693 and 1.2724 and 0.868 | 0.00944 | 0.00576 | 0.006374 and 0.006195 | 0.006 |  |  |  |  |  |  |  |  |  | fraction unbound (in vitro; [8]): 0.00714; fraction unbound (in vitro; [9]): 0.00885; fraction unbound (in vitro; [10]): 0.007 |
| FC(F)(I)C(F)(F)C(F)(F)C(F)(F)I [Perfluoro-1,4-diiodobutane] | 1 |  |  | 0 |  | 0.11 |  | 0.00723 | 0.00533 |  | 0.0055 | 1436.94 and 1194.41 and 1213.84 | 1281.73 | 860.037 and 995.998 and 977.671 | 928.02 | 0.724 | 0.740 | 6.005 and 3.594 and 5.646 | 5.08 | 0.00546 | fraction unbound (in vitro; [14]): 0.00698; fraction unbound (in vitro; [15]): 0.00546 |
| FC(F)(I)C(F)(F)C(F)(F)C(F)(F)C(F)(F)C(F)(F)I [1,6-Diiodoperfluorohexane] | 1 | 0.687 | 72% | 0 | 0.685 | 0.577 | 0.7185 and 0.686 and 0.6511 | 0.295 | 0.267 | 0.5494 and 0.308 and 0.227 | 0.026 | 8774.08 and 7745.84 and 7383.58 | 7967.83 | 5893.98 and 5567.71 and 5583.03 | 5730.84 | 0.719 | 0.718 | 94.9667 and 176.609 and 162.022 | 144.53 | 0.0256 | fraction unbound (in vitro; [8]): 0.36; fraction unbound (in vitro; [14]): 0.0161; fraction unbound (in vitro; [10]): 0.361 |
| C=CC(=O)OCCC(F)(F)C(F)(F)C(F)(F)C(F)(F)C(F)(F)C(F)(F)C(F)(F)C(F)(F)F [8:2 Fluorotelomer acrylate] | 1 |  |  |  |  |  |  |  |  |  |  |  |  |  |  |  |  |  |  |  | % remaining_PPB (human plasma [4]): 0%; PPB_Stab_Fail (human plasma [4]): 1 |
| C=C(C)C(=O)OCC(F)(F)C(F)(F)C(F)(F)C(F)F [1H,1H,5H-Perfluoropentyl methacrylate] | 1 |  | 0.01% | 1 |  | 0.00623 |  | 0.267 | 0.249 |  |  | 1599.93 and 1543.59 and 1278.91 | 1474.15 | 75.2443 and 72.767 and 69.0294 | 74.01 | 0.050 | 0.050 | 25.8202 and 12.2631 and 16.0467 | 18.04 | 0.25 | fraction unbound (in vitro; [15]): 0.248 |
| FC(F)(Br)C(F)(F)C(F)(F)C(F)(F)C(F)(F)C(F)(F)Br [1,6-Dibromododecafluorohexane] | 1 |  | 40% | 0 |  | 0.312 |  | 1.78E-09 | 0 |  | 0.004 | 8781.60 and 9238.06 and 11600.01 | 9873.23 | 4002.39 and 3732.26 and 4390.36 | 3867.32 | 0.392 | 0.415 | 16.97 | 16.97 | 0.00422 | fup (human plasma [3]; human plasma, 10 μM, ultracentrifugation, 37 °C): 0.004; fraction unbound (in vitro; [14]): 0.00424; fraction unbound (in vitro; [15]): 0.00422 |
| OCCCC(F)(F)C(F)(F)C(F)(F)C(F)(F)C(F)(F)C(F)(F)C(F)(F)C(F)(F)F [3-(Perfluorooctyl)propanol] | 1 | 0.894 |  | 0 | 0.893 | 0.272 | 0.9156 and 0.9452 and 0.8196 | 0.0348 | 0.0352 | 0.03475 and 0.04477 | 0.0357 |  |  |  |  |  |  |  |  |  | fraction unbound (in vitro; [9]): 0.0277; fraction unbound (in vitro; [10]): 0.036 |
| CCNc1nc(NC(C)C)nc(SC)n1 [Ametryn, reference compound] |  |  |  |  |  |  |  |  |  |  |  |  |  |  |  |  |  |  |  |  | hepatocyte CLint at 1 μM [5]: 14.7 µL/min/1e6 cells |
